Here are results for 14 compounds from US11384055B2 (BIOMARIN PHARMACEUTICAL INC., priority 2017, dated 2022).

A word on the IC50: it is the concentration that inhibits the measured activity by half.

The structures appear in SMILES notation.

The test has as its target T1, Human GO (Homo sapiens, UniProt Q9UJM8).
T1 construct: purchased Novus Biologicals NBP1-72412
T1 sequence (Q9UJM8 1-370): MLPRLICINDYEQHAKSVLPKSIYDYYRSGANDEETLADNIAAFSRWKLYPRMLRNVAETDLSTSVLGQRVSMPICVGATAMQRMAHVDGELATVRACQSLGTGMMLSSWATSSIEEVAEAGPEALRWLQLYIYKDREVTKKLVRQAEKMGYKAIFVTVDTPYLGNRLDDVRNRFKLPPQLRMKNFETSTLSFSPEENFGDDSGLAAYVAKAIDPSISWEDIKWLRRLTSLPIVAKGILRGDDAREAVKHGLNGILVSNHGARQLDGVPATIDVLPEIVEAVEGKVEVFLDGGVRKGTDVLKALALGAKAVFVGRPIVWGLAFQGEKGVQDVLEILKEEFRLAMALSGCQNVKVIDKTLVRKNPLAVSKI
Kind of test: GO enzymatic assay (coupled fluorescence/HRP assay, glycolate substrate). The following applies: Table 2; read-out: Range (range of IC50 values calculated from the enzymatic assays). Format: biochemical. In short, it runs like this: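 Human GO incubated with glycolate substrate in 50 mM potassium phosphate, pH 7, with varying inhibitor concentrations. Activity read by coupled HRP fluorescence. IC50 taken from variable-slope sigmoidal dose-response fits of percent inhibition relative to DMSO control.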
For the compound `O=C(O)c1[nH]nnc1S[C@H]1CC[C@@H](c2ccc(C(F)(F)F)cc2)CC1` [Compound 332, 4-(((cis)-4-(4-(trifluoromethyl)phenyl)cyclohexyl)thio)-1H-1,2,3-triazole-5-carboxylic acid], the IC50 is less than 100 nM.

For `CN(Cc1nn[nH]c1C(=O)O)c1ccc(-c2ccc(OC(F)(F)F)cc2)cc1` [Compound 333, 4-((methyl(4′-(trifluoromethoxy)-[1,1′-biphenyl]-4-yl)amino)methyl)-1H-1,2,3-triazole-5-carboxylic acid 2,2,2-trifluoroacetate], the 50% inhibitory concentration (IC50) is less than 100 nM.

Consider `O=C(O)c1[nH]nnc1-c1cc(OCC2CC2)cc(C(F)(F)F)c1` [Compound 334, 4-(3-(cyclopropylmethoxy)-5-(trifluoromethyl)phenyl)-1H-1,2,3-triazole-5-carboxylic acid], for which the IC50 was less than 100 nM.

Take `O=C(O)c1[nH]nnc1[S+]([O-])c1ccc(Cl)c(OCC2CCCCC2)c1` (centres unmarked) [Compound 335, 4-((4-chloro-3-(cyclohexylmethoxy)phenyl)sulfinyl)-1H-1,2,3-triazole-5-carboxylic acid]: the IC50 was 1000 to 10000 nM.

For `O=C(O)c1[nH]nnc1Sc1ccc(Cl)c(OCC2CCCCC2)c1` [Compound 336, 4-((4-chloro-3-(cyclohexylmethoxy)phenyl)thio)-1H-1,2,3-triazole-5-carboxylic acid], the concentration for half-maximal inhibition (IC50) is less than 100 nM.

Consider `O=C(O)c1[nH]nnc1S[C@H]1CC[C@@H](c2cc(Cl)cc(OC(F)(F)F)c2)CC1` [Compound 337, 4-(((cis)-4-(3-chloro-5-(trifluoromethoxy)phenyl)cyclohexyl)thio)-1H-1,2,3-triazole-5-carboxylic acid], for which the IC50 was less than 100 nM.

As to `O=C(O)c1[nH]nnc1SC1CCN(c2cc(Cl)cc(OC(F)(F)F)c2)CC1` [Compound 338, 4-((1-(3-chloro-5-(trifluoromethoxy)phenyl)piperidin-4-yl)thio)-1H-1,2,3-triazole-5-carboxylic acid], the 50% inhibitory concentration (IC50) was less than 100 nM.

In the case of `O=C(O)c1[nH]nnc1Sc1ccc(N2CCC(F)(F)CC2)cc1` [Compound 339, 4-((4-(4,4-difluoropiperidin-1-yl)phenyl)thio)-1H-1,2,3-triazole-5-carboxylic acid 2,2,2-trifluoroacetate], the half-maximal inhibitory concentration (IC50) was less than 100 nM.

With `O=C(O)c1[nH]nnc1SC1CCC(c2cccc(N3CCCCC3)c2)CC1` (centres unmarked) [Compound 340, 4-((4-(3-(piperidin-1-yl)phenyl)cyclohexyl)thio)-1H-1,2,3-triazole-5-carboxylic acid 2,2,2-trifluoroacetate], the half-maximal inhibitory concentration (IC50) was less than 100 nM.

For the compound `CN1CCN(c2ccc([C@H]3CC[C@@H](Sc4nn[nH]c4C(=O)O)CC3)cc2)CC1` [Compound 341, 4-(((cis)4-(4-(4-methylpiperazin-1-yl)phenyl)cyclohexyl)thio)-1H-1,2,3-triazole-5-carboxylic acid 2,2,2-trifluoroacetate], the half-maximal inhibitory concentration (IC50) was less than 100 nM.

Consider `O=C(O)c1[nH]nnc1Sc1ccc(-c2ccc(N3CCCCC3)cc2)c(Cl)c1` [Compound 342, 4-((2-chloro-4′-(piperidin-1-yl)-[1,1′-biphenyl]-4-yl)thio)-1H-1,2,3-triazole-5-carboxylic acid 2,2,2-trifluoroacetate], for which the IC50 is less than 100 nM.

Consider `O=C(O)c1[nH]nnc1Sc1cc(OCC2CCCC2)ccc1Cl` [Compound 343, 4-((2-chloro-5-(cyclopentylmethoxy)phenyl)thio)-1H-1,2,3-triazole-5-carboxylic acid], for which the half-inhibitory concentration (IC50) is less than 100 nM.

Consider `N#Cc1ccc(N2CCC(Sc3nn[nH]c3C(=O)O)CC2)cc1` [Compound 344, 4-((1-(4-cyanophenyl)piperidin-4-yl)thio)-1H-1,2,3-triazole-5-carboxylic acid 2,2,2-trifluoroacetate], for which the half-inhibitory concentration (IC50) was less than 100 nM.

`O=C(O)c1[nH]nnc1S[C@H]1CC[C@@H](c2ccc(Cl)c(Cl)c2)CC1` [Compound 345, 4-(((cis)-4-(3,4-dichlorophenyl)cyclohexyl)thio)-1H-1,2,3-triazole-5-carboxylic acid 2,2,2-trifluoroacetate]: the IC50 was less than 100 nM.
